Experimental data: publication PMC10285291, “The impact of CYP2C19 genotype on phenoconversion by concomitant medication” (Frontiers in Pharmacology, 2023)

Assays:
CYP2C19 [1] = target: T1, CYP2C19 (Homo sapiens, UniProt P33261); experiment: in vitro; settings: microsomes
CYP2C19 [2] = target: T1, CYP2C19; experiment: S-mephenytoin […]'-hydroxylation inhibition in individual human liver microsomes at […] fluvoxamine, LC-MS/MS; assay type: cell-based; set-up: human liver microsomes

T1 sequence (P33261 whole entry): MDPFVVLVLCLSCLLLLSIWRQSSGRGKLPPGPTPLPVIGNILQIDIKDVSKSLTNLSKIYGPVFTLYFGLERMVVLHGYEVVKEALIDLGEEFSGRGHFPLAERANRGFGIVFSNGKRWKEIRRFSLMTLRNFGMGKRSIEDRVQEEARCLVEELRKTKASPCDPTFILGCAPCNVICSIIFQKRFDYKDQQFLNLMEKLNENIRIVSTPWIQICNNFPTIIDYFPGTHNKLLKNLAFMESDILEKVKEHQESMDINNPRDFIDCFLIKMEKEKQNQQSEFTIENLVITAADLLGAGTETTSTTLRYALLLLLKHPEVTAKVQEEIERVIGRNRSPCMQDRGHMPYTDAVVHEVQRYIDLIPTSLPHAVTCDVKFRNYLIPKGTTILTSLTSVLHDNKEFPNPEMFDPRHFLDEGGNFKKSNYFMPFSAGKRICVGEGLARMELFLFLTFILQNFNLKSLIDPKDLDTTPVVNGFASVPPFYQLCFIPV

Row | SMILES | KI (inactivation) (CYP2C19 [1]) [µM] | inhibition at 1 µM (CYP2C19 [2]) [%]
1 | COc1ccc2[nH]c([S+]([O-])Cc3ncc(C)c(OC)c3C)nc2c1 (centres unmarked) [omeprazole] | 4.47 ± 1.8 | 
2 | COCCCC/C(=N\OCCN)c1ccc(C(F)(F)F)cc1 [fluvoxamine] |  | 85
